{"source": "paper PMC3040889", "about": "“Synthesis and Biological Evaluation of Delavayin-C” (Indian Journal of Pharmaceutical Sciences, 2008)", "assay_type_in_all_cases": "cell-based", "key": {"Psuedomonas aeruginosa [1]": {"system": "Psuedomonas aeruginosa", "assay": "microbe, parasite or virus in culture", "conditions": "disc diffusion, 50 μg/ml", "protocol": "(§1) The synthesized cyclic heptapeptide was screened in vitro for its antibacterial and antifungal activity by using disc diffusion method and tube dilution technique. The antibacterial activity was determined against four bacterial species (B. subtilis, S. aureus, E. coli and P. aeruginosa) and antifungal activity against Candida albican. In the disc diffusion method, the activity studies were carried out according to modified Kirby-Bauer method. Benzyl penicillin and fluconazole were used as standards against bacterial and fungal strains, respectively at a concentration of 50 μg/ml. Nutrient broth and Sabourds agar were used as a medium and dimethylformamide (DMF) was used as a solvent control for carrying out the activity. After preparation of the disc, allowed to stand for 24 h at 37°. The zone of inhibition, observed around the disks after incubation, was measured."}, "Candida albicans [2]": {"system": "Candida albicans", "assay": "microbe, parasite or virus in culture", "conditions": "disc diffusion, 50 μg/ml", "protocol": "as §1"}, "Escherichia coli [3]": {"system": "Escherichia coli", "assay": "microbe, parasite or virus in culture", "conditions": "disc diffusion, 50 μg/ml", "protocol": "as §1"}, "Staphylococcus aureus [4]": {"system": "Staphylococcus aureus", "assay": "microbe, parasite or virus in culture", "conditions": "disc diffusion, 50 μg/ml", "protocol": "as §1"}, "Bacillus subtilis [5]": {"system": "Bacillus subtilis", "assay": "microbe, parasite or virus in culture", "conditions": "disc diffusion, 50 μg/ml", "protocol": "as §1"}, "Psuedomonas aeruginosa [6]": {"system": "Psuedomonas aeruginosa", "assay": "tube dilution technique for minimum inhibitory concentration", "parameters": "key: (+) indicates presence of growth (no activity); –: absence of growth", "conditions": "P. aeruginosa, nutrient broth, 37° for 24 h, turbidity", "protocol": "(§2) Compound inhibiting growth of microorganisms was further tested for minimum inhibitory concentration (MIC). A solution of the compound was prepared in DMF and a series of doubling dilutions prepared with sterile pipettes. To each of a series of sterile stoppered test tubes, a standard volume of nutrient broth medium was added. A control tube containing no antimicrobial agent was included. The inoculum consisting of an overnight broth culture of microorganisms was added to separate tubes. The tubes were incubated at 37° for 24 h and examined for turbidity. The tube with highest dilution showing no turbidity was the one containing compound with MIC."}, "Candida albicans [7]": {"system": "Candida albicans", "assay": "tube dilution technique for minimum inhibitory concentration", "parameters": "key: (+) indicates presence of growth (no activity); –: absence of growth", "conditions": "C. albicans, broth medium, 37° for 24 h, turbidity", "protocol": "as §2"}, "Escherichia coli [8]": {"system": "Escherichia coli", "assay": "tube dilution technique for minimum inhibitory concentration", "parameters": "key: (+) indicates presence of growth (no activity); –: absence of growth", "conditions": "E. coli, nutrient broth, 37° for 24 h, turbidity", "protocol": "as §2"}, "Staphylococcus aureus [9]": {"system": "Staphylococcus aureus", "assay": "tube dilution technique for minimum inhibitory concentration", "parameters": "key: (+) indicates presence of growth (no activity); –: absence of growth", "conditions": "S. auereus, nutrient broth, 37° for 24 h, turbidity", "protocol": "as §2"}, "Bacillus subtilis [10]": {"system": "Bacillus subtilis", "assay": "tube dilution technique for minimum inhibitory concentration", "parameters": "key: (+) indicates presence of growth (no activity); –: absence of growth", "conditions": "B. subtilis, nutrient broth, 37° for 24 h, turbidity", "protocol": "as §2"}, "[11]": {"conditions": "24 h at 37°, DMF solvent control"}}, "note": "Residues, ends and D or L forms follow the SMILES beside them."}
{"molecule": "OC(Cn1cncn1)(Cn1cncn1)c1ccc(F)cc1F", "note": "[Fluconazole, fluconazole, reference compound]", "values": [{"measurement": "Diameter of zone of inhibition, P. aeruginosa", "setting": "Psuedomonas aeruginosa [1]; [11]", "value": "-"}, {"measurement": "zone of inhibition at 50 µg/mL", "setting": "Candida albicans [2]; Candida albicans, 24 h at 37°, DMF solvent control, read-out: Diameter of zone of inhibition, C. albicans", "value": 20, "unit": "mm"}, {"measurement": "Diameter of zone of inhibition, E. coli", "setting": "Escherichia coli [3]; [11]", "value": "-"}, {"measurement": "Diameter of zone of inhibition, S. auereus", "setting": "Staphylococcus aureus [4]; [11]", "value": "-"}, {"measurement": "Diameter of zone of inhibition, B. Subtilis", "setting": "Bacillus subtilis [5]; [11]", "value": "-"}]}
{"molecule": "CC1(C)S[C@@H]2[C@H](NC(=O)Cc3ccccc3)C(=O)N2[C@H]1C(=O)O", "note": "[Benzyl Penicillin, Benzyl penicillin, reference compound]", "values": [{"measurement": "zone of inhibition at 50 µg/mL", "setting": "Psuedomonas aeruginosa [1]; Pseudomonas aeruginosa, 24 h at 37°, DMF solvent control, read-out: Diameter of zone of inhibition, P. aeruginosa", "value": 17, "unit": "mm"}, {"measurement": "Diameter of zone of inhibition, C. albicans", "setting": "Candida albicans [2]; [11]", "value": "-"}, {"measurement": "zone of inhibition at 50 µg/mL", "setting": "Escherichia coli [3]; Escherichia coli, 24 h at 37°, DMF solvent control, read-out: Diameter of zone of inhibition, E. coli", "value": 16, "unit": "mm"}, {"measurement": "zone of inhibition at 50 µg/mL", "setting": "Staphylococcus aureus [4]; Staphylococcus aureus, 24 h at 37°, DMF solvent control, read-out: Diameter of zone of inhibition, S. auereus", "value": 25, "unit": "mm"}, {"measurement": "zone of inhibition at 50 µg/mL", "setting": "Bacillus subtilis [5]; Bacillus subtilis, 24 h at 37°, DMF solvent control, read-out: Diameter of zone of inhibition, B. Subtilis", "value": 15, "unit": "mm"}]}
{"molecule": "CC(C)[C@@H]1NC(=O)[C@@H]2CCCN2C(=O)[C@H](Cc2ccc(O)cc2)NC(=O)[C@H](Cc2ccc(O)cc2)NC(=O)[C@H](Cc2ccc(O)cc2)NC(=O)CNC(=O)[C@@H]2CCCN2C1=O", "note": "[Compound, delavayin-C, cyclo(gly-tyr-tyr-tyr-pro-val-pro)] (cyclo(GYYYPVP))", "values": [{"measurement": "Presence or absence of growth", "setting": "Psuedomonas aeruginosa [6]; 1.56 μg/ml", "value": "+"}, {"measurement": "Presence or absence of growth", "setting": "Psuedomonas aeruginosa [6]; 3.13 μg/ml", "value": "+"}, {"measurement": "Presence or absence of growth", "setting": "Psuedomonas aeruginosa [6]; 6.25 μg/ml", "value": "+"}, {"measurement": "Presence or absence of growth", "setting": "Psuedomonas aeruginosa [6]; 12.5 μg/ml", "value": "+"}, {"measurement": "Presence or absence of growth", "setting": "Psuedomonas aeruginosa [6]; 25 μg/ml", "value": "+"}, {"measurement": "Presence or absence of growth", "setting": "Psuedomonas aeruginosa [6]; 50 μg/ml", "value": "+"}, {"measurement": "Presence or absence of growth", "setting": "Psuedomonas aeruginosa [6]; 100 μg/ml", "value": "–"}, {"measurement": "Presence or absence of growth", "setting": "Candida albicans [7]; 1.56 μg/ml", "value": "+"}, {"measurement": "Presence or absence of growth", "setting": "Candida albicans [7]; 3.13 μg/ml", "value": "+"}, {"measurement": "Presence or absence of growth", "setting": "Candida albicans [7]; 6.25 μg/ml", "value": "+"}, {"measurement": "Presence or absence of growth", "setting": "Candida albicans [7]; 12.5 μg/ml", "value": "+"}, {"measurement": "Presence or absence of growth", "setting": "Candida albicans [7]; 25 μg/ml", "value": "+"}, {"measurement": "Presence or absence of growth", "setting": "Candida albicans [7]; 50 μg/ml", "value": "–"}, {"measurement": "Presence or absence of growth", "setting": "Candida albicans [7]; 100 μg/ml", "value": "–"}, {"measurement": "Presence or absence of growth", "setting": "Escherichia coli [8]; 1.56 μg/ml", "value": "+"}, {"measurement": "Presence or absence of growth", "setting": "Escherichia coli [8]; 3.13 μg/ml", "value": "+"}, {"measurement": "Presence or absence of growth", "setting": "Escherichia coli [8]; 6.25 μg/ml", "value": "+"}, {"measurement": "Presence or absence of growth", "setting": "Escherichia coli [8]; 12.5 μg/ml", "value": "+"}, {"measurement": "Presence or absence of growth", "setting": "Escherichia coli [8]; 25 μg/ml", "value": "+"}, {"measurement": "Presence or absence of growth", "setting": "Escherichia coli [8]; 50 μg/ml", "value": "+"}, {"measurement": "Presence or absence of growth", "setting": "Escherichia coli [8]; 100 μg/ml", "value": "–"}, {"measurement": "Presence or absence of growth", "setting": "Staphylococcus aureus [9]; 1.56 μg/ml", "value": "+"}, {"measurement": "Presence or absence of growth", "setting": "Staphylococcus aureus [9]; 3.13 μg/ml", "value": "+"}, {"measurement": "Presence or absence of growth", "setting": "Staphylococcus aureus [9]; 6.25 μg/ml", "value": "+"}, {"measurement": "Presence or absence of growth", "setting": "Staphylococcus aureus [9]; 12.5 μg/ml", "value": "+"}, {"measurement": "Presence or absence of growth", "setting": "Staphylococcus aureus [9]; 25 μg/ml", "value": "+"}, {"measurement": "Presence or absence of growth", "setting": "Staphylococcus aureus [9]; 50 μg/ml", "value": "+"}, {"measurement": "Presence or absence of growth", "setting": "Bacillus subtilis [10]; 1.56 μg/ml", "value": "+"}, {"measurement": "Presence or absence of growth", "setting": "Bacillus subtilis [10]; 3.13 μg/ml", "value": "+"}, {"measurement": "Presence or absence of growth", "setting": "Bacillus subtilis [10]; 6.25 μg/ml", "value": "+"}, {"measurement": "Presence or absence of growth", "setting": "Bacillus subtilis [10]; 12.5 μg/ml", "value": "+"}, {"measurement": "Presence or absence of growth", "setting": "Bacillus subtilis [10]; 25 μg/ml", "value": "+"}, {"measurement": "Presence or absence of growth", "setting": "Bacillus subtilis [10]; 50 μg/ml", "value": "–"}, {"measurement": "Presence or absence of growth", "setting": "Bacillus subtilis [10]; 100 μg/ml", "value": "–"}, {"measurement": "activity against P. aeruginosa when compared with standard drug benzyl penicillin (in words)", "setting": "Psuedomonas aeruginosa [1]", "value": "less activity"}, {"measurement": "Diameter of zone of inhibition, P. aeruginosa", "setting": "Psuedomonas aeruginosa [1]; [11]", "value": 11, "unit": "mm"}, {"measurement": "inhibition of growth against Candida albicans (in words)", "setting": "Candida albicans [2]", "value": "moderate inhibition of growth"}, {"measurement": "Diameter of zone of inhibition, C. albicans", "setting": "Candida albicans [2]; [11]", "value": 18, "unit": "mm"}, {"measurement": "activity against E. coli when compared with standard drug benzyl penicillin (in words)", "setting": "Escherichia coli [3]", "value": "less activity"}, {"measurement": "Diameter of zone of inhibition, E. coli", "setting": "Escherichia coli [3]; [11]", "value": 10, "unit": "mm"}, {"measurement": "activity against S. aureus when compared with standard drug benzyl penicillin (in words)", "setting": "Staphylococcus aureus [4]", "value": "moderate activity"}, {"measurement": "Diameter of zone of inhibition, S. auereus", "setting": "Staphylococcus aureus [4]; [11]", "value": 21, "unit": "mm"}, {"measurement": "activity against B. subtilis when compared with standard drug benzyl penicillin (in words)", "setting": "Bacillus subtilis [5]", "value": "moderate activity"}, {"measurement": "Diameter of zone of inhibition, B. Subtilis", "setting": "Bacillus subtilis [5]; [11]", "value": 15, "unit": "mm"}]}
